Test results: ChEMBL document CHEMBL1151149, “Antineoplastic agents, 107. Isolation of acteoside and isoacteoside from Castilleja linariaefolia” (1990)
Values after ≈ are worked out from the molar mass of the structure shown.

Tested on: P388
Test: Cytotoxicity against mouse P388 cells
Assay type: functional
Settings: read-out: ED50 (the source's name)

Which EC50 does the source give for `C[C@@H]1O[C@@H](O[C@@H]2[C@@H](O)[C@H](OCCc3ccc(O)c(O)c3)O[C@H](CO)[C@H]2OC(=O)/C=C/c2ccc(O)c(O)c2)[C@H](O)[C@H](O)[C@H]1O` [ACETOSIDE] here?
Its EC50 is 2.6 µg/mL (≈ 4.16 µM).

How did the EC50 turn out when `C[C@@H]1O[C@@H](O[C@@H]2[C@@H](O)[C@H](OCCc3ccc(O)c(O)c3)O[C@H](COC(=O)/C=C/c3ccc(O)c(O)c3)[C@H]2O)[C@H](O)[C@H](O)[C@H]1O` [ISOACTEOSIDE] was run?
Its EC50 is 10 µg/mL (≈ 16 µM).
